Entries after “also recorded” stand apart in the source; their conditions may differ.
Columns and labels:
[1] = system: HCC827-ER1 subcutaneous xenograft; details: s.c. HCC827-ER1 tumors, n=5/group
Experimental: (§1) Tumour measurements and body weights were taken 3 times weekly and treatment initiated when the tumours reached a mean volume of ˜200 mm^3 (n=5 per group).
(§2) Mice were anaesthetised and transported to the SARRP where CBCT (cone beam computed tomography) images were acquired. Using the MuriSlice software the isocenter of the tumour was identified and aligned with the central axis of the beam. […] A tolerability was performed initially to evaluate 3 Gy/day×5 days for 2 week.

[2] = system: HCC827 subcutaneous xenograft; details: s.c. HCC827 tumours, n=5/group, Erlotinib 25 mg/kg po QD
Experimental: as §1, §2

| Structure (SMILES) | tumor growth inhibition compared with vehicle/control ([1]; drug alone, p<0.001, Erlotinib 25 mg/kg po QD) | tumor regression, drug combined with irradiation [1] | effect on tumor volume, drug alone [2] | tumor regression, drug alone ([1]; drug alone) |
| --- | --- | --- | --- | --- |
| C[C@@H](Oc1cc(-c2cnn(C3CCNCC3)c2)cnc1N)c1c(Cl)ccc(F)c1Cl [Crizotinib, 3-[(1R)-1-(2,6-dichloro-3-fluorophenyl)ethoxy]-5-(1-piperidin-4-ylpyrazol-4-yl)pyridin-2-amine] | ~60% | tumour regression was restored; also recorded: tumor regression was restored | no effect | – |
| C#Cc1cccc(Nc2ncnc3cc(OCCOC)c(OCCOC)cc23)c1 [Erlotinib, N-(3-ethynylphenyl)-6,7-bis(2-methoxyethoxy) quinazolin-4-amine] | – | tumour regression was restored; also recorded: tumor regression was restored | – | no tumour regression; also recorded: no tumor regression |

Source: patent US9937179B2, “Combined treatment for cancer resistant to an epidermal growth factor receptor kinase inhibitor” (Pre Clinical Oncology Services Ltd., priority 2014, dated 2018)
